{"source": "patent US20030044412A1", "about": "“Membrane estrogen receptor-directed therapy in breast cancer” (priority 2002, published 2003)", "key": {"estrogen receptor": {"test_system": "estrogen receptor", "assay": "Serine phosphorylation of estrogen receptor in human breast cancer cells", "type": "cell-based", "details": "prior exposure, 15 minutes after estrogen", "method": "FIG. 12 is a gel showing that the MAPKK (MEK) inhibitor, PD 98059 (PD), reduces estrogen (E2)-induced serine phosphorylation of estrogen receptor. Serine phosphorylation of estrogen receptor in human breast cancer cells was assessed at 15-60 min after treatment with E2 alone or in combination with PD 98059\nThis blockade of estrogen-induced MAP kinase activation by PD 980959 results in the suppression of estrogen-induced growth of MCF-7 breast cancer cells (see FIG. 13)."}, "[1]": {"test_system": "MCF-7 human breast cancer cells", "assay": "Assay of cell proliferation in vitro (cell counts)", "type": "cell-based", "details": "for cell growth after brief treatment with BSA conjugate: 0.5 μM for 10 min, 72 h in estrogen-free media"}, "[2]": {"test_system": "MAPK, ERK-1 (p44) and ERK-2 (p42)", "assay": "p44/42 MAPK phosphorylation/activity in MCF-7 cells", "type": "cell-based, human"}, "[3]": {"biological_target": "T1, HER-2 receptor / estrogen receptor association (Homo sapiens, UniProt P04626+P21860)", "T1 construct": "endogenous in cells; host or cells: MCF-7 PAR", "assay": "Immunoprecipitation/Western blot of HER-2 receptor with ER", "type": "cell-based", "details": "10 nM, 5-60 minutes, MCF-7 cells", "method": "MCF-7 breast cancer cells were treated in vitro for 5-60 minutes with 10 nM heregulin, a ligand known to activate HER-2/HER-3 receptors (3). Lysates were prepared and processed as described before (3). Samples were immunoprecipitated with anti-HER-2 antibody (IP:HER-2 receptor) prior to electrophoresis and Western blotting with anti-ER antibody H222 (IB: estrogen receptor). Estrogen receptor normally occurs as a 65- to 70-kd protein (3). The experiment shown here is representative of results from 4 other experiments. In independent experiments in which samples were immunoprecipitated with anti-ER antibody prior to electrophoresis and Western blotting with anti-HER-2 antibody, a similar association between ER and HER-2 receptors was found.\nTo further evaluate prior reports of cross-communication between ER and HER-2 receptors (3,24,29,54), MCF-7 PAR cells were treated in vitro with heregulin, a ligand for activation of HER-2/HER-3 receptor heterodimers (3). […] MCF-7 breast cancer cells were treated in vitro for 5-60 minutes with 10 nM heregulin, a ligand known to activate HER-2/HER-3 receptors (3). Lysates were prepared and processed as described before (3). Samples were immunoprecipitated with anti-HER-2 antibody (IP: HER-2 receptor) prior to electrophoresis and Western blotting with anti-ER antibody H222 (IB: estrogen receptor). […]"}, "[4]": {"test_system": "surface membrane ER of MCF-7 (MCF-7 PAR) breast cancer cells", "assay": "Membrane labeling with E2β-BSA-FITC, fluorescent microscopy and flow cytometry", "type": "binding, human"}, "[5]": {"biological_target": "plasma membranes from MCF-7 human breast cancer cells (membrane-associated estrogen receptor) (Homo sapiens, UniProt P03372)", "details": "100-fold molar excess of competitor"}, "[6]": {"test_system": "MAPK, ERK-1 (p44) and ERK-2 (p42)", "details": "independent report (40); cited from earlier work"}, "Akt kinase": {"test_system": "Akt kinase", "assay": "Akt kinase activity (phosphorylated GSK-3 densitometry) in MCF-7 cells", "type": "cell-based, human"}}, "note": "Where two headings read alike, the source gives them in different places."}
{"molecule": "COc1cccc(-c2cc(=O)c3ccccc3o2)c1N", "note": "[PD 98059]", "values": [{"measurement": "suppression of estrogen-induced serine phosphorylation of the estrogen receptor", "setting": "estrogen receptor", "result": "suppressed"}, {"measurement": "suppression of estrogen-induced growth", "setting": "[1]; 20 micromolar inhibitor, estradiol-17β at 2 nM", "result": "suppression"}, {"measurement": "blockade of estradiol activation of MAP kinase", "setting": "[2]; pre-treatment, 20 μM", "result": "blocked"}]}
{"molecule": "heregulin", "values": [{"measurement": "physical association of HER-2 receptor with estrogen receptor", "setting": "[3]", "result": "promotes physical association"}]}
{"molecule": "CC(=O)[C@H]1CC[C@H]2[C@@H]3CCC4=CC(=O)CC[C@]4(C)[C@H]3CC[C@]12C", "note": "[progesterone]", "values": [{"measurement": "competition for membrane-associated binding of E2β-BSA-FITC", "setting": "[4]; MCF-7 PAR cells, Ab 1 at 1 μg/ml", "result": "not"}, {"measurement": "competition for E2β-BSA-FITC surface binding (flow cytometry)", "setting": "[4]; MCF-7 cells, P<0.01", "result": "not effective"}, {"measurement": "suppression of [3H]E2β binding to PM by unlabeled competing steroid", "setting": "[5]", "result": "essentially uninfluenced"}]}
{"molecule": "C[C@]12CC[C@@H]3c4ccc(O)cc4C[C@@H](CCCCCCCCC[S+]([O-])CCCC(F)(F)C(F)(F)F)[C@H]3[C@@H]1CC[C@@H]2O", "note": "(stereo partly drawn) [ICI 182,780]", "values": [{"measurement": "competition for E2β-BSA-FITC surface binding (flow cytometry)", "setting": "[4]", "result": "significant reduction"}, {"measurement": "competition for membrane-associated binding of E2β-BSA-FITC", "setting": "[4]", "result": "competitively reduced"}, {"measurement": "blockade of proliferative effect of E2β-BSA", "setting": "[1]; 10 nM ICI 182,780 with 200 nM E2-BSA, 10 min, 48 hrs", "result": "blocked"}, {"measurement": "blockade of proliferative effect of E2β-BSA", "setting": "[1]; 0.5 μM E2β-BSA 10 min, 72 h", "result": "blocked"}, {"measurement": "inhibition of estrogen-induced MAPK activity in MCF-7 cells", "setting": "[6]", "result": "inhibit"}, {"measurement": "inhibition of estrogen-induced Akt kinase activation", "setting": "Akt kinase; preincubation: Ab2 10 μg/ml, ICI 182,780 1 μM, LY294002 10 μM", "result": "inhibition"}]}
{"molecule": "17β-estradiol 17-hemisuccinate covalently linked to bovine serum albumin [Ab E2β-BSA]", "values": [{"measurement": "cell growth after brief treatment with BSA conjugate", "setting": "[1]", "result": "stimulates cell growth"}, {"measurement": "proliferative response to short-term treatment", "setting": "[1]; 10 min treatment, counted after 48 hrs in estrogen-free media, P<0.001", "result": "stimulate cell growth"}, {"measurement": "activation of Akt kinase", "setting": "Akt kinase; 10 nM E2β or 0.5 μM E2β-BSA for 20 min", "result": "significant activation"}, {"measurement": "phosphorylation of MAPK isoforms", "setting": "[2]; 10 nM E2β, E2α, 0.5 μM BSA conjugates", "result": "phosphorylation of MAPK isoforms is again evident"}]}
{"molecule": "6 keto-17α-estradiol 6-(o-carboximethyloxime:BSA [Ab E2α-BSA]", "values": [{"measurement": "cell growth after brief treatment with BSA conjugate", "setting": "[1]", "result": "not"}]}
{"molecule": "N#CC(=C(/N)Sc1ccccc1N)/C(C#N)=C(\\N)Sc1ccccc1N", "note": "[Ab U0126]", "values": [{"measurement": "Inhibition of MCF-7 cell growth", "setting": "[1]; 10 μM for 2 h before VH, 10 nM E2 or 1 μM E2-BSA, 72 h", "result": "Inhibition"}, {"measurement": "inhibition of MAPK phosphorylation/activation induced by E2β or E2β-BSA", "setting": "[2]; Ab2 10 μg/ml 2 h or U0126 25 μM 90 min preincubation", "result": "prevented activation"}]}
{"molecule": "C[C@]12CC[C@H]3[C@@H](CCC4=CC(=O)CC[C@@]43C)[C@@H]1CC[C@@H]2O", "note": "[testosterone]", "values": [{"measurement": "suppression of [3H]E2β binding to PM by unlabeled competing steroid", "setting": "[5]", "result": "essentially uninfluenced"}]}
